According to patent US20080280906A1, “Imidazolyl-Pyrimidine Compounds for Use in the Treatment of Proliferative Disorders” (priority 2005, published 2008):

Molecular target: T1, CDK2/Cyclin E (Homo sapiens, UniProt P24941)
T1 construct: The open reading frames of CDK2 and Cyclin E were isolated by reverse transcriptase-PCR; made in house; host or cells: SF21 (Spodoptera frugiperda) insect cells, baculovirus co-infection
Experiment: in vitro kinase assay, Scintillation Proximity Assay (SPA), [γ-33-P]-ATP incorporation into GST-Rb
Assay type: biochemical
Conditions: GST-Rb substrate, 0.2 μM ATP, 60 minutes room temperature, read-out: CDK2 inhibitory activity IC50
Experimental: The compounds were tested in an in vitro kinase assay in 96 well format using Scintillation Proximity Assay (SPA—obtained from Amersham) for measuring incorporation of [γ-33-P]-Adenosine Triphosphate into a test substrate (GST-Retinoblastoma protein; GST-Rb). In each well was placed the compound to be tested (diluted in DMSO and water to correct concentrations) and in control wells either roscovitine as an inhibitor control or DMSO as a positive control. […]
The plates were sealed with Topseal-S plate sealers, left for two hours then spun at 2500 rpm, 1124×g., for 5 minutes. The plates were read on a Topcount for 30 seconds per well. […]
E. coli paste was resuspended in 10 ml/g of NETN buffer (50 mM Tris pH 7.5, 120 mM NaCl, 1 mM EDTA, 0.5% v/v NP-40, 1 mM PMSF, 1 ug/ml leupeptin, 1 ug/ml aprotinin and 1 ug/ml pepstatin) and sonicated for 2×45 seconds per 100 ml homogenate. […] The final product was analysed by Sodium Dodeca Sulfate (SDS) PAGE (Polyacrylamide gel) using 8-16% Tris-Glycine gels (Novex, San Diego, USA).
The open reading frames of CDK2 and Cyclin E were isolated by reverse transcriptase-PCR using HeLa cell and activated T cell mRNA as a template and cloned into the insect expression vector pVL1393 (obtained from Invitrogen 1995 catalogue number: V1392-20). […]

- IC50: 3 nM
SMILES: Cc1ncc(-c2ccnc(Nc3ccc(C(=O)N4CCOCC4)cc3)n2)n1C(C)C [Example 14]
